Key:
Test in all cases: Histone demethylase assay, purified enzyme panel
Assay type in all cases: biochemical
Conditions in all cases: 58B1, 10 μM
JMJD3 (KDM6B) = JMJD3 (KDM6B) (Homo sapiens, UniProt O15054)
Excerpt: (§1) Histone Demethylase Assay
(§2) To further examine the effects of 58B1 on histone demethylase, we screened a panel of purified histone demethylases was screened.

JMJD2A (KDM4A) = biological target: T1, JMJD2A (KDM4A) (Homo sapiens, UniProt O75164)
T1 sequence (O75164 1-1064): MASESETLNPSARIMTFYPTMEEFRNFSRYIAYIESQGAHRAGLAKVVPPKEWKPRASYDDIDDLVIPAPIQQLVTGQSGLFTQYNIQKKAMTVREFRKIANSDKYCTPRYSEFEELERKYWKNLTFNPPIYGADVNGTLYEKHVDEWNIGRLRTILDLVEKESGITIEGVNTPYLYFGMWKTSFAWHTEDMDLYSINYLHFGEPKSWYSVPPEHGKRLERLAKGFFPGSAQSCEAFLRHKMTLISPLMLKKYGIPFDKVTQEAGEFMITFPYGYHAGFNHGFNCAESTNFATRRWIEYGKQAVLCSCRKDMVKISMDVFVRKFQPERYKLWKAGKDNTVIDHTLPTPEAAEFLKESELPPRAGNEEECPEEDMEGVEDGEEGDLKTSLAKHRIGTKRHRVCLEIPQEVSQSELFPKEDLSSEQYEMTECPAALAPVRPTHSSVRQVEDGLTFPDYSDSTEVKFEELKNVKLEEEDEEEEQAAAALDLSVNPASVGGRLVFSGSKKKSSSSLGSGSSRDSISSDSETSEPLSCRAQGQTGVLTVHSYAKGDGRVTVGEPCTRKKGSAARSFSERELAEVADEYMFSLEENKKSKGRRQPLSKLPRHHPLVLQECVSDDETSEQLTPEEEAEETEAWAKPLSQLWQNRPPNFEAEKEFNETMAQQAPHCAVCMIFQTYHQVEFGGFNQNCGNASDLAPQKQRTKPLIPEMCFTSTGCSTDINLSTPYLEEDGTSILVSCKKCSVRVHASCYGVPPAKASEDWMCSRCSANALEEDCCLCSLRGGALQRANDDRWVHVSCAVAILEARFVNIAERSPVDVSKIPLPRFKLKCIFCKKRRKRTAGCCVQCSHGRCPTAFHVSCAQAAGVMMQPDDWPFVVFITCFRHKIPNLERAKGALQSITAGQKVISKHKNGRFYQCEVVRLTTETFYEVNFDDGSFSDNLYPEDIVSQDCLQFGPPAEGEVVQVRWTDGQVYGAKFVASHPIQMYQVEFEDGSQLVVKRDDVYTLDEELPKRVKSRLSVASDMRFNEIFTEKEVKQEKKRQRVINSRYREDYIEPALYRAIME
Excerpt: as §1, §2

Jarid1B (KDM5B) = Jarid1B (KDM5B) (Homo sapiens, UniProt Q9UGL1)
Chain of Jarid1B (KDM5B) (Q9UGL1 whole entry): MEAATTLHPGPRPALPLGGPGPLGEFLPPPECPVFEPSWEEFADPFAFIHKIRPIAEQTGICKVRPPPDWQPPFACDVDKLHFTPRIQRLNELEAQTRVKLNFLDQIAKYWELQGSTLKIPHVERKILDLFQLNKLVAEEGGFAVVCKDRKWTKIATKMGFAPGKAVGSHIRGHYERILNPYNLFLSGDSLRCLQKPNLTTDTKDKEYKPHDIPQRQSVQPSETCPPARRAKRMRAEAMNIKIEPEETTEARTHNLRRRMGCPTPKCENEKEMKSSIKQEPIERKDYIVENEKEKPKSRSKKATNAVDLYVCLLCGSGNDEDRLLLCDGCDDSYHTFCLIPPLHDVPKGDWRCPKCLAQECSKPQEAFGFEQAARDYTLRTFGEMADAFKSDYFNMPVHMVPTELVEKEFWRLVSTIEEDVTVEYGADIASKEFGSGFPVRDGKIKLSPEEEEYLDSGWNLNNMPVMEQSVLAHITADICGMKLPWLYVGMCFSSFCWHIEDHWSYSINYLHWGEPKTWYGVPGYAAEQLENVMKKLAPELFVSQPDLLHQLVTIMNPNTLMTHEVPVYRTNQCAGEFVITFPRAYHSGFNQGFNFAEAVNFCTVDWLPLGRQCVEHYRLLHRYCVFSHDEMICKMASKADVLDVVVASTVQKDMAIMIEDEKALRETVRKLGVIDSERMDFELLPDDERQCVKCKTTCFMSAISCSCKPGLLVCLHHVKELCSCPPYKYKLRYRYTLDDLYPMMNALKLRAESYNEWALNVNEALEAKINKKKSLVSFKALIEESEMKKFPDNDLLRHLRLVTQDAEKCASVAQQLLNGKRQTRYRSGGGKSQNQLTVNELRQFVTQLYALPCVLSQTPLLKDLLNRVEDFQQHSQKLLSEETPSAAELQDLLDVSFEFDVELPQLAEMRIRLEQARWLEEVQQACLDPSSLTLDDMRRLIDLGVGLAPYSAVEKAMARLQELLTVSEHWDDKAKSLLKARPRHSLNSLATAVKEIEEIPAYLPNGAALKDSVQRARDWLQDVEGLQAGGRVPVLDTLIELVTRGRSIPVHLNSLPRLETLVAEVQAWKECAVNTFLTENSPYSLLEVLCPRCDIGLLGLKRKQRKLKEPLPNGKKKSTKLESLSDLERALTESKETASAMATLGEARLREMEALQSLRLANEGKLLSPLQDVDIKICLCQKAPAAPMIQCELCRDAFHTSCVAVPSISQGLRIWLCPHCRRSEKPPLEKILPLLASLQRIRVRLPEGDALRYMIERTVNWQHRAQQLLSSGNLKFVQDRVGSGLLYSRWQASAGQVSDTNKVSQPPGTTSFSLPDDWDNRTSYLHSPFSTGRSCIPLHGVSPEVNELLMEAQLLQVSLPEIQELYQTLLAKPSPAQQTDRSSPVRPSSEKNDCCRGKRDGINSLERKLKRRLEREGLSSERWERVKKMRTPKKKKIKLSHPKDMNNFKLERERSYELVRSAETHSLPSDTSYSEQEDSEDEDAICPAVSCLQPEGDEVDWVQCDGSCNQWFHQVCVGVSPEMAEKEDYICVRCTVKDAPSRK
Excerpt: as §1, §2

JMJD2C (KDM4C) = biological target: T2, JMJD2C (KDM4C) (Homo sapiens, UniProt Q9H3R0)
T2 sequence (Q9H3R0 1-1056): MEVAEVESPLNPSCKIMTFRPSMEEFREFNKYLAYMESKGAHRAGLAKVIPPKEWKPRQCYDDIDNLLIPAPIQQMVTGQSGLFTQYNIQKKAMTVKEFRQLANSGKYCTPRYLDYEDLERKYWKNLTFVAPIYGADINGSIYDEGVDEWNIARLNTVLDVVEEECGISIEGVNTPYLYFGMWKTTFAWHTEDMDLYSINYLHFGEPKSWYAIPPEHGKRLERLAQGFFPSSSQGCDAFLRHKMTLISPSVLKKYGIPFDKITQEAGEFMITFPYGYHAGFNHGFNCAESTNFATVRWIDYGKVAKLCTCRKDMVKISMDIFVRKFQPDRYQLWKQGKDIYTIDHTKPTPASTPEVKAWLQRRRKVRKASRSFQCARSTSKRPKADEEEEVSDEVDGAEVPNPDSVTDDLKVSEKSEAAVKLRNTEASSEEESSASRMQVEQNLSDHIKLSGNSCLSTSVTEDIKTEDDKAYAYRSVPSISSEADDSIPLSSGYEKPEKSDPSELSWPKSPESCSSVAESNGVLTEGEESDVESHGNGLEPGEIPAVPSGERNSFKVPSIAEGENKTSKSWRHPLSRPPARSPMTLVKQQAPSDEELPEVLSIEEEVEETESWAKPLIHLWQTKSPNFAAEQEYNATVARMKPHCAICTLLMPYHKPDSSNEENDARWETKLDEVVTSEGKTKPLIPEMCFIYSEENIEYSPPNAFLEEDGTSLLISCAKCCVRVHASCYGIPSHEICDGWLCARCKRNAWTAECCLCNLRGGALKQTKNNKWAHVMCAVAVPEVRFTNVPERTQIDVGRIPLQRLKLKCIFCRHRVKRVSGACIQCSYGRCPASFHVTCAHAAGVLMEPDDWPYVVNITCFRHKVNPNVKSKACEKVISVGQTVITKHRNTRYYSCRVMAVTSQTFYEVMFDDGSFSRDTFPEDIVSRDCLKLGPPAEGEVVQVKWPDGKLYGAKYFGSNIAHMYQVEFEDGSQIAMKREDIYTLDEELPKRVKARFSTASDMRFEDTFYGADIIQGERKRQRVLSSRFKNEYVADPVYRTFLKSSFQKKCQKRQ
Excerpt: as §1, §2

UTX (KDM6A) = UTX (KDM6A) (Homo sapiens, UniProt O15550)
Chain of UTX (KDM6A) (O15550 whole entry): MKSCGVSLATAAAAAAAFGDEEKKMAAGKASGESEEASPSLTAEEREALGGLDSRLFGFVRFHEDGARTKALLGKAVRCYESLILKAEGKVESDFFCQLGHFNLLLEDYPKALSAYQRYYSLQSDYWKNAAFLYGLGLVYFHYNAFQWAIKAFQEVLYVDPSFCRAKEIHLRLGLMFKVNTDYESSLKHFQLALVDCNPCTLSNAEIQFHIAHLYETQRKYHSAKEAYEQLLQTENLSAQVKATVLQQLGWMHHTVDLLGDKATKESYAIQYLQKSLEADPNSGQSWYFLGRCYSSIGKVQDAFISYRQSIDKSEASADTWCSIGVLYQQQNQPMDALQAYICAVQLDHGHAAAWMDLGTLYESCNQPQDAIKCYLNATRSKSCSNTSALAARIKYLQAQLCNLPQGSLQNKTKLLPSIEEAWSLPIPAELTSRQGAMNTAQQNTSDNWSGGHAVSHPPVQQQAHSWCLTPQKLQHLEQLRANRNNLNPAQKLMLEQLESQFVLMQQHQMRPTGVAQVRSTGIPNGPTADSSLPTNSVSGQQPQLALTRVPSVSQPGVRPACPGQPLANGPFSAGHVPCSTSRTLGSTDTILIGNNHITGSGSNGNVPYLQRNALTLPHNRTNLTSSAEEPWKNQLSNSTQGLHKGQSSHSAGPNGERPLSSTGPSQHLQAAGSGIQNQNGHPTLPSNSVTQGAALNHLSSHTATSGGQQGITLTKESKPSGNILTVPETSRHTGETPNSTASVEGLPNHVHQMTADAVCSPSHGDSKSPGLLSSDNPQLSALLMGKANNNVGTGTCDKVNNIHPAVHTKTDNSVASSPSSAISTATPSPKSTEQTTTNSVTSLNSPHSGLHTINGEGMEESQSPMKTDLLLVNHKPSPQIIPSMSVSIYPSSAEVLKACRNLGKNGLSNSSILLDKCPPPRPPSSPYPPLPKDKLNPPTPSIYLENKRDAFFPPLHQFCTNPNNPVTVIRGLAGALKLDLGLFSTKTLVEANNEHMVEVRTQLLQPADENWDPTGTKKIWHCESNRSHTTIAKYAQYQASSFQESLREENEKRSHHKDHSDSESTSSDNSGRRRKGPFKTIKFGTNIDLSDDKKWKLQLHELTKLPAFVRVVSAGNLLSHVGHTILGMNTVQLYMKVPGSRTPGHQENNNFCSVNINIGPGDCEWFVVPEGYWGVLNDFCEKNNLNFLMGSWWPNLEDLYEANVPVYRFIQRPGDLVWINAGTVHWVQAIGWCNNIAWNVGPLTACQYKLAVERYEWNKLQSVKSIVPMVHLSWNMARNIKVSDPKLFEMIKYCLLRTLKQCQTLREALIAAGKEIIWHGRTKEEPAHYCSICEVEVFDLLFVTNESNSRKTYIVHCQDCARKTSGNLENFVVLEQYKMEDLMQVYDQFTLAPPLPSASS
Excerpt: as §1, §2

LSD1 (KDM1A) = LSD1 (KDM1A) (Homo sapiens, UniProt O60341)
Excerpt: as §1, §2

Chain of JMJD3 (KDM6B) (O15054 whole entry): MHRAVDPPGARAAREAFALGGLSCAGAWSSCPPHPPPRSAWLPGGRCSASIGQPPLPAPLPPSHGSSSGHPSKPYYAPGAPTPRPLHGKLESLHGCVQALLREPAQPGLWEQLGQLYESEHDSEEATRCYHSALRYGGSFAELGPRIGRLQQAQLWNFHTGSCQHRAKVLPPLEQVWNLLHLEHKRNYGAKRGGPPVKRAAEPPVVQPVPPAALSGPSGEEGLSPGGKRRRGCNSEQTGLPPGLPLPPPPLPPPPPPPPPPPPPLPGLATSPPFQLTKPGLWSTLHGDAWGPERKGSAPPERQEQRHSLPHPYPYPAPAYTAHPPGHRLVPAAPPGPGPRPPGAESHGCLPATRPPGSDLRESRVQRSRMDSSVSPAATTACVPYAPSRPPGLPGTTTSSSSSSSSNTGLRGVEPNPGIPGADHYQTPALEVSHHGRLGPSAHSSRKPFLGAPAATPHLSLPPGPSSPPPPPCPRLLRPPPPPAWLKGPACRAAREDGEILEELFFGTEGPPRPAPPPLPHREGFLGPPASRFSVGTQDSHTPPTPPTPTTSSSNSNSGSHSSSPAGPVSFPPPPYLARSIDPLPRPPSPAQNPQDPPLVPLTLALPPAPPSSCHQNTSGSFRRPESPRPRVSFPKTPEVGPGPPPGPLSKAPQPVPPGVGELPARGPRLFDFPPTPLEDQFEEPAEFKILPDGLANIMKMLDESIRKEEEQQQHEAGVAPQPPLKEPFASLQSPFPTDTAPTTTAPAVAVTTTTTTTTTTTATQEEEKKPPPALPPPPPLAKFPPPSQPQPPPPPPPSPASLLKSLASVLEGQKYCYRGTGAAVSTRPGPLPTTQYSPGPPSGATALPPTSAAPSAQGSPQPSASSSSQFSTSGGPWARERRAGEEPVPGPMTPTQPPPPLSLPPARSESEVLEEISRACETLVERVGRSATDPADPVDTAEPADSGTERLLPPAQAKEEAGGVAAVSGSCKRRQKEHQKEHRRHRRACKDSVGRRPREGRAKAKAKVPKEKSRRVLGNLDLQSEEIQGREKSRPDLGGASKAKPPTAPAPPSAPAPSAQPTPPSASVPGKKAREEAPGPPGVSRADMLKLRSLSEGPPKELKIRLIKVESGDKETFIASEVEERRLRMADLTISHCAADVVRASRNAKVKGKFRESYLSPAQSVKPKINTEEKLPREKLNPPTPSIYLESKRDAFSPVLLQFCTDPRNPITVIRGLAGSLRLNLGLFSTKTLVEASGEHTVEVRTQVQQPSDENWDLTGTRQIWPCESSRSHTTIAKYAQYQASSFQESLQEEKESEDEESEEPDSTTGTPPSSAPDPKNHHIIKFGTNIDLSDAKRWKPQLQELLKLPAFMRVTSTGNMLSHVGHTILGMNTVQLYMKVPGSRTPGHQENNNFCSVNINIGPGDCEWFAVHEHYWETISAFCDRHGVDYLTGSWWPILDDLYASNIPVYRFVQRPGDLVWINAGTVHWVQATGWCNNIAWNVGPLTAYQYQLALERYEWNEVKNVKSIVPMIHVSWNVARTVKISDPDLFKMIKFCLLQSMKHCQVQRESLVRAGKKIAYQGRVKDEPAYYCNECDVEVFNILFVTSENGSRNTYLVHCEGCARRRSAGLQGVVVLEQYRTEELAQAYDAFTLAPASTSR

Which inhibition at 10 µM (JMJD3 (KDM6B)) does the source give for `CCCC(=O)NC(c1ccc(N(CC)CC)cc1)c1cc(Cl)c2cccnc2c1O` (stereo not drawn) [58B1] here?
The inhibition at 10 µM was 94%.

And the inhibition at 10 µM (JMJD2A (KDM4A))?
The inhibition at 10 µM was 64%.

What about the inhibition at 10 µM (Jarid1B (KDM5B)) of the same compound?
The inhibition at 10 µM was 95%.

And the inhibition at 10 µM (JMJD2C (KDM4C))?
The inhibition at 10 µM was 72%.

And the inhibition at 10 µM (UTX (KDM6A))?
The inhibition at 10 µM was 100%.

And the inhibition at 10 µM (LSD1 (KDM1A))?
The inhibition at 10 µM was 32%.

— US12599597B2, “Substituted N-benzhydrylacetamide inhibitors of jumanji domain histone demethylases for the treatment of cancer” (University of Kentucky Research Foundation, priority 2020, dated 2026)
